Structures can show the parent of a compound that is named as a salt.
Experiments:
[1] = biological target: T1, Human SGLT2 (Homo sapiens, UniProt P31639); assay: Sodium-dependent sugar uptake inhibition test in CHO-K1 cells stably expressing human SGLT2 (Test Example 2); type: cell-based; settings: for IC50: CHO-K1 cells, [14C]methyl-α-D-glucopyranoside 1 mM, 37° C., one hour; for SGLT1/SGLT2: ratio of IC50 human SGLT1 to IC50 human SGLT2
T1 construct: expressed in transfected cells; host or cells: CHO-K1
T1 sequence (P31639 1-672): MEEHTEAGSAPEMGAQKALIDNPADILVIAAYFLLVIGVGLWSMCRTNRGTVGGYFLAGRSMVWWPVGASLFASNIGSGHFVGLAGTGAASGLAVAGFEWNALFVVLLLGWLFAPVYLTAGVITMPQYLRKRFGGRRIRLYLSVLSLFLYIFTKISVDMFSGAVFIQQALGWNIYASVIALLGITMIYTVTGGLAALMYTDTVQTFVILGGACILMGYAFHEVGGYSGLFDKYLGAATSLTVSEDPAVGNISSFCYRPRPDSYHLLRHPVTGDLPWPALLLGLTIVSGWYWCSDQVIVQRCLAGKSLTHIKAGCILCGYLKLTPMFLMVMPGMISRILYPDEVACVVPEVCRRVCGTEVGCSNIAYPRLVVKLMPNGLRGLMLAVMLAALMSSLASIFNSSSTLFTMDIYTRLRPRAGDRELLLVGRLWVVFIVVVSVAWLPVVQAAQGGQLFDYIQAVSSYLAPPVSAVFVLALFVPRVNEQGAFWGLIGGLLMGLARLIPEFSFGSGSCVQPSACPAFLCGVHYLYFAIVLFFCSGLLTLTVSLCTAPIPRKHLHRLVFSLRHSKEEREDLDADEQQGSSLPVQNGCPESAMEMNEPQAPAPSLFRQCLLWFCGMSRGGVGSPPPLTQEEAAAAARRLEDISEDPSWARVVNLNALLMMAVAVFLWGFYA
Description: (§1) Human SGLT1 sequence (NM_000343) was reverse-transcripted from human small intestinal mRNA, then amplified, and then introduced into pCMV-tag5A from Stratagene Corporation. Human SGLT2 sequence (NM_003041) was prepared from human nephric mRNA as with the above method, and then introduced into pcDNA3.1+hygro from Invitrogen Corporation. Each cloned sequence was confirmed to be identical with the reported sequence.
(§2) CHO-K1 cells were transfected with the human SGLT1 and human SGLT2 expression vectors using Lipofectamine 2000 (Invitrogen Corporation). SGLT expression cells were cultured in the presence of geneticin (SGLT1) or hygromycin B (SGLT2) of the concentration of 500 μg/mL to select resistant strains. Cells were obtained using sugar uptake specific activity as an index in the following system.
(§3) Cells stably expressing human SGLT1 and human SGLT2 were used in the sodium-dependent sugar uptake activity inhibition test. Cells were incubated in 1 mL of a pretreatment buffer solution (140 mM choline chloride, 2 mM KCl, 1 mM CaCl2, 1 mM MgCl2, 10 mM HEPES/5 mM Tris, pH 7.4) for 20 minutes. The pretreatment buffer solution was removed and 200 μL of an uptake buffer containing test compounds (methyl-α-D-glucopyranoside containing [^14C]methyl-α-D-glucopyranoside (0.1 mM for SGLT1 inhibition, 1 mM for SGLT2 inhibition), 140 mM NaCl, 2 mM KCl, 1 mM CaCl2, 1 mM MgCl2, 10 mM HEPES/5 mM Tris, pH 7.4) were added, and uptake reaction was performed at 37° C. for 30 minutes (SGLT1) or for one hour (SGLT2). After the reaction, cells were washed with 1 mL of a washing buffer (10 mM methyl-α-D-glucopyranoside, 140 mM choline chloride, 2 mM KCl, 1 mM CaCl2, 1 mM MgCl2, 10 mM HEPES/5 mM Tris, pH 7.4) twice and dissolved in 400 μL of 0.2 M NaOH solution. After Aquazole 2 (Perkin Elmer Corporation) was added and mixed well, radioactivity was measured with a liquid scintillation counter (Beckman Coulter Corporation). A buffer for uptake which contained no test compound was prepared as a control group. Another buffer solution for uptake containing choline chloride in place of NaCl was also prepared for basic uptake.

[2] = biological target: T2, Human SGLT1 (Homo sapiens, UniProt P13866); assay: Sodium-dependent sugar uptake inhibition test in CHO-K1 cells stably expressing human SGLT1 (Test Example 2); type: cell-based; settings: [14C]methyl-α-D-glucopyranoside 0.1 mM, 37° C., 30 minutes
T2 construct: expressed in transfected cells; host or cells: CHO-K1
T2 sequence (P13866 1-664): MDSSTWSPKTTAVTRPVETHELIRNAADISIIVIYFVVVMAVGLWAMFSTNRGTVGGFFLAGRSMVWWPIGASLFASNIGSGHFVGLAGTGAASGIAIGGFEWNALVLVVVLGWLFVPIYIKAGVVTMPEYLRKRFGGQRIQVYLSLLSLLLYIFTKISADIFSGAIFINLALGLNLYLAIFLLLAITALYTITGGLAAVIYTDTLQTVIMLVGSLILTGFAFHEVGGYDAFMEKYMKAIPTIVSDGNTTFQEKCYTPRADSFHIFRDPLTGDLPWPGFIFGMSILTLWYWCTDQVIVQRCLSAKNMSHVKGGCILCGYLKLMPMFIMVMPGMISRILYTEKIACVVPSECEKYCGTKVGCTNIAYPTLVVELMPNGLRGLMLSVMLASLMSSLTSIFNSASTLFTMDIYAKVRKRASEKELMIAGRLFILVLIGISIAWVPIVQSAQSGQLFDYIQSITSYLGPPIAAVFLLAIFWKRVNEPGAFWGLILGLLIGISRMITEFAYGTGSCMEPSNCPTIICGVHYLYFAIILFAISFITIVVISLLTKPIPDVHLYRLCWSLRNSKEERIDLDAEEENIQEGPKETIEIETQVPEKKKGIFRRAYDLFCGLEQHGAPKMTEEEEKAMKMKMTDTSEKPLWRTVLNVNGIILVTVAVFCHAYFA
Description: as §1, §2, §3

Compound	melting point [°C]	IC50 [1] [nM]	SGLT1/SGLT2 [1]	IC50 [2] [nM]
Clc1ccc([C@@H]2S[C@H](COCc3ccccc3)[C@@H](OCc3ccccc3)[C@H](OCc3ccccc3)[C@H]2OCc2ccccc2)cc1Cc1cc2ccccc2s1 [Compound 57]	140 to 143			
CCOc1cc(F)c(Cc2cc([C@@H]3S[C@H](CO)[C@@H](O)[C@H](O)[C@H]3O)ccc2Cl)cc1F [Compound 83, (1S)-1,5-Anhydro-1-[4-chloro-3-(2,5-difluoro-4-ethoxybenzyl)phenyl]-1-thio-D-glucitol]	72 to 76	30	48.7	1500
CCOc1ccc(Cc2cc([C@@H]3S[C@H](CO)[C@@H](O)[C@H](O)[C@H]3O)c(OC)cc2Cl)cc1 (as salt: Na) [Compound 99, (1S)-1,5-anhydro-1-[4-chloro-5-(4-ethoxybenzyl)-2-methoxyphenyl]-1-thio-D-glucitol]	177 to 179			
CCc1ccc(Cc2cccc([C@@H]3S[C@H](COCc4ccccc4)[C@@H](OCc4ccccc4)[C@H](OCc4ccccc4)[C@H]3OCc3ccccc3)c2)cc1 [Compound 1, (1S)-1,5-anhydro-2,3,4,6-tetra-O-benzyl-1-[3-(4-ethylbenzyl)phenyl]-1-thio-D-glucitol]	100 to 102.5			
COc1ccc(Cc2cc3ccccc3s2)cc1[C@@H]1S[C@H](CO)[C@@H](O)[C@H](O)[C@H]1O [Compound 130, (1S)-1,5-Anhydro-1-[3-[(1-benzothien-2-yl)methyl]-6-methoxyphenyl]-1-thio-D-glucitol]	97.5 to 98	2120		> 10000
COc1ccc([C@@H]2S[C@H](COCc3ccccc3)[C@@H](OCc3ccccc3)[C@H](OCc3ccccc3)[C@H]2OCc2ccccc2)cc1Cc1cc2ccccc2s1 [Compound 56]	133 to 135			
CCOc1ccc(Cc2cc([C@@H]3S[C@H](COCc4ccccc4)[C@@H](OCc4ccccc4)[C@H](OCc4ccccc4)[C@H]3OCc3ccccc3)ccc2Cl)cc1 [Compound 3]	126 to 128			
CCOc1ccc(Cc2cc([C@@H]3S[C@H](CO)[C@@H](O)[C@H](O)[C@H]3O)ccc2F)cc1 [Compound 81, (1S)-1,5-Anhydro-1-[3-(4-ethoxybenzyl)-4-fluorophenyl]-1-thio-D-glucitol]		600	10.9	6500
COc1cc(Cl)c(Cc2ccc(C(C)C)cc2)cc1[C@@H]1S[C@H](CO)[C@@H](O)[C@H](O)[C@H]1O [Compound 103, (1S)-1,5-Anhydro-1-[4-chloro-3-(4-isopropylbenzyl)-6-methoxyphenyl]-1-thio-D-glucitol]		69	347.9	23900
COc1ccc(Cc2cc([C@@H]3S[C@H](CO)[C@@H](O)[C@H](O)[C@H]3O)ccc2Cl)cc1 [Compound 88, (1S)-1,5-Anhydro-1-[4-chloro-3-(4-methoxybenzyl)phenyl]-1-thio-D-glucitol]		80	2.8	200
OC[C@H]1S[C@@H](c2cccc(Cc3cc4ccccc4s3)c2)[C@H](O)[C@@H](O)[C@@H]1O [Compound 129, (1S)-1,5-Anhydro-1-[3-[(1-benzothien-2-yl)methyl]-phenyl]-1-thio-D-glucitol]	159.5 to 160	3000	4.3	12800
CCOc1ccc(Cc2cc([C@@H]3S[C@H](CO)[C@@H](O)[C@H](O)[C@H]3O)c(O)cc2O)cc1 [Compound 100, (1S)-1,5-Anhydro-1-[3-(4-ethoxybenzyl)-4,6-dihydroxyphenyl]-1-thio-D-glucitol]	186 to 190	1520	2.9	4400
COc1cc(OC)c([C@@H]2S[C@H](CO)[C@@H](O)[C@H](O)[C@H]2O)cc1Cc1cc2ccccc2s1 [Compound 131, (1S)-1,5-Anhydro-1-[3-[(1-benzothien-2-yl)methyl]-4,6-dimethoxyphenyl]-1-thio-D-glucitol]		890	4.7	4100
CCOc1ccc(Cc2cc([C@@H]3S[C@H](CO)[C@@H](O)[C@H](O)[C@H]3O)c(OC)cc2Cl)cc1 [Compound 99, (1S)-1,5-anhydro-1-[4-chloro-5-(4-ethoxybenzyl)-2-methoxyphenyl]-1-thio-D-glucitol]		32	178.6	5600
CCOc1ccc(Cc2cc([C@@H]3S[C@H](CO)[C@@H](O)[C@H](O)[C@H]3O)ccc2Cl)cc1Cl [Compound 85, (1S)-1,5-Anhydro-1-[4-chloro-3-(3-chloro-4-ethoxybenzyl)phenyl]-1-thio-D-glucitol]	79 to 82	1270	4.8	6100
CC(C)c1ccc(Cc2cc([C@@H]3S[C@H](CO)[C@@H](O)[C@H](O)[C@H]3O)ccc2Cl)cc1 [Compound 96, (1S)-1,5-Anhydro-1-[4-chloro-3-(4-isopropylbenzyl)phenyl]-1-thio-D-glucitol]		62	116.3	7300
CCOc1ccc(Cc2cc([C@@H]3S[C@H](CO)[C@@H](O)[C@H](O)[C@H]3O)ccc2Cl)cc1F [Compound 84, (1S)-1,5-Anhydro-1-[4-chloro-3-(3-fluoro-4-ethoxybenzyl)phenyl]-1-thio-D-glucitol]	73 to 81	170	12.5	2100
